Measured values from PMC13050340 (Journal of Computer-Aided Molecular Design, 2026).

Target: T1, 3-mercaptopyruvate sulfurtransferase (3-MST) (Homo sapiens, UniProt P25325)
T1 sequence (P25325 2-297): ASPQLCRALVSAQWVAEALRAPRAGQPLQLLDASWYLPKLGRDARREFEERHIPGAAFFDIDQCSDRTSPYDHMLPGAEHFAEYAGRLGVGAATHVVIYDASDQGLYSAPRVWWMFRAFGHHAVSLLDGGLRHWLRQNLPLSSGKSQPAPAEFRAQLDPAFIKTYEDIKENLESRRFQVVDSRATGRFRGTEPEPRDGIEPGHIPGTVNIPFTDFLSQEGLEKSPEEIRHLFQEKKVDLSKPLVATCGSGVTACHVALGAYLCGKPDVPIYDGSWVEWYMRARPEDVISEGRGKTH
Experiment: biochemical 3-MST inhibition assay, concentration-response

IC50: 9.59 ± 1.22 µM
Structure (SMILES): COc1cc2cc(Oc3ccc4ccc(=O)oc4c3)c(=O)oc2cc1O [compound 5, Daphnoretin]
